Read-outs that look alike come from different tables or passages of the source.
Key:
SARS-CoV-2 [1] = assay: microbe, parasite or virus in culture; format: cell-based; conditions: Severe acute respiratory syndrome coronavirus 2, Vero C1008, 96 h
SARS-CoV-2 [2] = assay: microbe, parasite or virus in culture; format: cell-based
in vitro = conditions: African green monkey
[3] = CPE assay, percent cell protection, moi 0.05, 4 days, read-out: EC50
[4] = Severe acute respiratory syndrome coronavirus 2, Vero C1008, Table 2, naproxen/ketotifen experiment
[5] = Table 2, column 50 μM (head: Concentration Naproxen)

Structure (SMILES): COc1ccc2c(c1)c(CC(=O)O)c(C)n2C(=O)c1ccc(Cl)cc1 [Indomethacin, 2-{1-[(4-Chlorophenyl)-carbonyl]-5-methoxy-2-methyl-1H-indol-3-yl}acetic acid]
- EC50 (SARS-CoV-2 [1]; [3]): > 400 µM
- inhibition of SARS-CoV-2 / viral yield (in words) (SARS-CoV-2 [2]): inhibited SARS-CoV-2
- EC50 (SARS-CoV-2 [2]; Severe acute respiratory syndrome coronavirus 2, Vero C1008, Table 4, indomethacin titrated, alone or with fixed ketotifen): 100 µM
- inhibition at 25 µM (SARS-CoV-2 [2]; Severe acute respiratory syndrome coronavirus 2, Vero C1008, Table 4, Concentration Indomethacin 25 μM, read-out: percentage inhibition of SARS-CoV-2): 0%
- inhibition at 50 µM (SARS-CoV-2 [2]; Severe acute respiratory syndrome coronavirus 2, Vero C1008, Table 4, Concentration Indomethacin 50 μM, read-out: percentage inhibition of SARS-CoV-2): 0%
- inhibition at 100 µM (SARS-CoV-2 [2]; Severe acute respiratory syndrome coronavirus 2, Vero C1008, Table 4, Concentration Indomethacin 100 μM, read-out: percentage inhibition of SARS-CoV-2): 50%
- Percentage viability (Vero E6 cells; concentration 0.39 μM): 98%
- Percentage viability (Vero E6 cells; concentration 0.78 μM): 106%
- Percentage viability (Vero E6 cells; concentration 1.56 μM): 111%
- Percentage viability (Vero E6 cells; concentration 3.13 μM): 117%
- Percentage viability (Vero E6 cells; concentration 6.25 μM): 124%
- Percentage viability (Vero E6 cells; concentration 12.5 μM): 124%
- Percentage viability (Vero E6 cells; concentration 25 μM): 125%
- Percentage viability (Vero E6 cells; concentration 50 μM): 143%
- Percentage viability (Vero E6 cells; concentration 100 μM): 143%
- CC50 (in vitro): > 400 µM

Structure (SMILES): CN1CCC(=C2c3ccccc3CC(=O)c3sccc32)CC1 [Ketotifen]
- EC50 (SARS-CoV-2 [1]): > 139 µM
- inhibition of SARS-CoV-2 / viral yield (in words) (SARS-CoV-2 [2]): inhibited SARS-CoV-2
- EC50 (SARS-CoV-2 [2]; [4]): 48.9 µM
- EC50 (SARS-CoV-2 [2]; Severe acute respiratory syndrome coronavirus 2, Vero C1008, Table 3, ketotifen titrated, alone or with fixed indomethacin): 47.1 µM
- inhibition at 6.25 µM (SARS-CoV-2 [2]; Severe acute respiratory syndrome coronavirus 2, Vero C1008, Table 3, Concentration Ketotifen 6.25 μM, read-out: percentage inhibition of SARS-CoV-2): 0%
- inhibition at 12.5 µM (SARS-CoV-2 [2]; Severe acute respiratory syndrome coronavirus 2, Vero C1008, Table 3, Concentration Ketotifen 12.5 μM, read-out: percentage inhibition of SARS-CoV-2): 0%
- inhibition at 25 µM (SARS-CoV-2 [2]; Severe acute respiratory syndrome coronavirus 2, Vero C1008, Table 3, Concentration Ketotifen 25 μM, read-out: percentage inhibition of SARS-CoV-2): 0%
- inhibition at 50 µM (SARS-CoV-2 [2]; Severe acute respiratory syndrome coronavirus 2, Vero C1008, Table 3, Concentration Ketotifen 50 μM, read-out: percentage inhibition of SARS-CoV-2): 60%
- percentage inhibition of SARS-CoV-2 (SARS-CoV-2 [2]; [5]): 68%
- Percentage viability (Vero E6 cells; concentration 0.20 μM): 110%
- Percentage viability (Vero E6 cells; concentration 0.39 μM): 103%
- Percentage viability (Vero E6 cells; concentration 0.78 μM): 101%
- Percentage viability (Vero E6 cells; concentration 1.56 μM): 109%
- Percentage viability (Vero E6 cells; concentration 3.13 μM): 121%
- Percentage viability (Vero E6 cells; concentration 6.25 μM): 125%
- Percentage viability (Vero E6 cells; concentration 12.5 μM): 122%
- Percentage viability (Vero E6 cells; concentration 25 μM): 104%
- Percentage viability (Vero E6 cells; concentration 50 μM): 86%
- CC50 (in vitro): 139 µM

Structure (SMILES): COc1ccc2cc(C(C)C(=O)O)ccc2c1 (stereo not drawn) [Naproxen, 6-methoxy-α-methyl-2-naphthaleneacetic acid]
- EC50 (SARS-CoV-2 [1]; [3]): > 400 µM
- EC50 (SARS-CoV-2 [2]; [4]): > 100 µM
- percentage inhibition of SARS-CoV-2 (SARS-CoV-2 [2]; Table 2, column 6.25 μM (head: Concentration Naproxen)): 0%
- percentage inhibition of SARS-CoV-2 (SARS-CoV-2 [2]; Table 2, column 12.5 μM (head: Concentration Naproxen)): 21%
- percentage inhibition of SARS-CoV-2 (SARS-CoV-2 [2]; Table 2, column 25 μM (head: Concentration Naproxen)): 0%
- percentage inhibition of SARS-CoV-2 (SARS-CoV-2 [2]; [5]): 0%
- percentage inhibition of SARS-CoV-2 (SARS-CoV-2 [2]; Table 2, column 100 μM (head: Concentration Naproxen)): 0%

Structure (SMILES): CCC(CC)COC(=O)[C@H](C)N[P@](=O)(OC[C@H]1O[C@@](C#N)(c2ccc3c(N)ncnn23)[C@H](O)[C@@H]1O)Oc1ccccc1 [Remdesivir]
- EC50 (SARS-CoV-2 [1]): 2.9 µM
